{"source": "paper PMC2824700", "about": "“Genetic analysis of the Staphylococcus epidermidis Macromolecular Synthesis Operon: Serp1129 is an ATP binding protein and sigA transcription is regulated by both σ^A- and σ^B-dependent promoters” (BMC Microbiology, 2010)", "target": "T1, Serp1129 (Staphylococcus epidermidis, UniProt Q5HNY5)", "T1 construct": "full ORF in pET30a+ (NcoI/BamHI), His-tagged, E. coli BL21(DE3), HisTrap purified", "T1 sequence (Q5HNY5 1-272)": "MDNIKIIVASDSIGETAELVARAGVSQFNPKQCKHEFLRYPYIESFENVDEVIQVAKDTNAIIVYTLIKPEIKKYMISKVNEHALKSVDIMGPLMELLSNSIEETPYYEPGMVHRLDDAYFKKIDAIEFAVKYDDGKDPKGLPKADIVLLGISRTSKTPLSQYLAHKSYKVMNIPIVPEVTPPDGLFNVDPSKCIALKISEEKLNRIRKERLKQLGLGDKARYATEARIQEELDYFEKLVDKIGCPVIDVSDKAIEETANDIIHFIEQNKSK", "assay": "competition against biotinylated azidoanilide GTP photoaffinity label, streptavidin blot", "format": "binding", "conditions": "5-30 uM unlabeled GTP versus 1 uM labelled analogue; 25 °C, 30 s, then UV 254 nm"}
{"compound": "Nc1nc2c(ncn2[C@@H]2O[C@H](COP(=O)(O)OP(=O)(O)OP(=O)(O)O)[C@@H](O)[C@H]2O)c(=O)[nH]1", "note": "[GTP]", "values": [{"measurement": "competition against biotinylated azidoanilide GTP photoaffinity label, streptavi", "result": "A similar pattern was observed when GTP binding reactions were performed"}]}
